Read-outs that look alike come from different tables or passages of the source.
How the values were obtained:
[1] = Pharmacokinetic studies in rats (plasma, brain, CSF); assay type: in vivo; conditions: for half-life: read-out: t½ (converted); for Cmax / AUC(0-t) / AUC(0-inf): normalized to 25 mg/kg; for AUC(0-t): read-out: Exposure/trapezoid AUC0-18; for AUC(0-inf): read-out: Exposure/trapezoid AUC0-inf
Description: Male Sprague Dawley rats weighing approximately 200 g received test article (E19 or 82) as a single oral gavage (OG) dose of approximately 25 mg/kg (approximately 10 animals per group).
All doses were administered as clear colorless solutions as in situ sodium salts in 5% (m/v) dextrose:2% (v/v) ethanol in DWI. All dose solutions were delivered at 2 mL/kg. Animals were fasted for at least 4 hours before dosing, and for 2 hours after dosing.
Blood and CSF samples and brain tissue were sampled from 1 animal/timepoint/group immediately before dosing and approximately 0.5, 1, 2, 3, 4, 6, 8, 12, 18 and 24 hr after dosing for full pharmacokinetic (plasma and CSF) and tissue (Brain) analysis.

[2] = Pharmacokinetic studies in mice (plasma, brain); assay type: in vivo; conditions: for Cmax: normalized to 25 mg/kg (nominal 25 mg/kg); for AUC(0-t) / AUC(0-inf): normalized to 25 mg/kg; for AUC(0-t): read-out: Exposure/trapezoid AUC0-18; for AUC(0-inf): read-out: Exposure/trapezoid AUC0-inf
[3] = system: bloodstream-form trypanosome T. brucei brucei 427 strain; assay: Trypanosoma brucei brucei high-throughput in vitro drug sensitivity assay (resazurin); assay type: cell-based; conditions: Trypanosoma brucei, 72 h
[4] = L929 cytotoxicity evaluation (resazurin); assay type: cell-based; conditions: mouse, L929 mouse fibroblast cells; 72 hrs incubation; read-out: Cytotox L-929 IC50
Outline: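 Mouse L929 fibroblasts (1×10^4/mL seeding, attached overnight) were treated 72 h at 37 °C, 5% CO2 with serially diluted compounds in DMSO in D-MEM/10% FBS. Viability read by resazurin fluorescence after 3–4 h (ex 544/em 590 nm); IC50 from sigmoidal fits of single data points.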

[5] = male, Sprague Dawley, rat, CSF, oral, rats
[6] = male, Sprague Dawley, rat, brain, oral, rats
[7] = male, Sprague Dawley, rat, plasma, oral, rats
[8] = male, CD-1, mouse, brain, oral, mice
[9] = male, CD-1, mouse, plasma, oral, mice

SMILES: CC1(C)OB(O)c2cc(NC(=O)c3ccc(F)cc3C(F)(F)F)ccc21 [compound 82]
- half-life ([1]; male, Sprague Dawley, rat, 25 mg/kg, CSF, oral, rats): 8.7 h
- half-life ([1]; male, Sprague Dawley, rat, 25 mg/kg, brain, oral, rats): 9.5 h
- CL/F ([1]; male, Sprague Dawley, rat, 25 mg/kg, plasma, oral, rats, read-out: Oral Clearance Cl/F (converted)): 1.53 mL/min/kg
- half-life ([1]; male, Sprague Dawley, rat, 25 mg/kg, plasma, oral, rats): 15.5 h
- Cmax [1, 5]: 1000 ng/mL
- AUC(0-t) [1, 5]: 13.6 µg·h/mL
- AUC(0-inf) [1, 5]: 16.8 µg·h/mL
- Cmax [1, 6]: 7900 ng/mL
- AUC(0-t) [1, 6]: 120 µg·h/mL
- AUC(0-inf) [1, 6]: 152 µg·h/mL
- Cmax [1, 7]: 17000 ng/mL
- AUC(0-t) [1, 7]: 272 µg·h/mL
- AUC(0-inf) [1, 7]: 433 µg·h/mL
- time levels in brain and CSF are above the in vitro MIC ([1]; nominal single oral dose of 25 mg/kg to rats): approximately 12 hours
- fold improved exposure in CSF over E19 ([1]; rat, in vivo): approximately 4 fold
- Fold improvement 82 vs. E19: Oral Clearance Cl/F ([1]; rat, in vivo, po): 2.8 fold
- Fold improvement 82 vs. E19: t½ ([1]; rat, in vivo, po, CSF): 2.8 fold
- Fold improvement 82 vs. E19: t½ ([1]; rat, in vivo, po, brain): 3.7 fold
- Fold improvement 82 vs. E19: t½ ([1]; rat, in vivo, po, plasma): 1.9 fold
- CL/F ([2]; male, CD-1, mouse, 25 mg/kg, plasma, oral, mice, read-out: Oral Clearance Cl/F (converted)): 3.27 mL/min/kg
- half-life ([2]; male, CD-1, mouse, 25 mg/kg, plasma, oral, mice, read-out: t½ (converted)): 6.9 h
- Cmax [2, 8]: 7700 ng/mL
- AUC(0-t) [2, 8]: 64.9 µg·h/mL
- AUC(0-inf) [2, 8]: 65.5 µg·h/mL
- Cmax [2, 9]: 9400 ng/mL
- AUC(0-t) [2, 9]: 108 µg·h/mL
- AUC(0-inf) [2, 9]: 128 µg·h/mL
- brain concentrations relative to the MIC ([2]; mouse and rat, brain (and CSF)): maintains concentrations above the MIC for extended time periods
- fold improved exposure in brain tissue over E19 ([2]; mouse, in vivo): 6-12 fold
- Fold improvement 82 vs. E19: Oral Clearance Cl/F ([2]; mouse, in vivo, po): 1.2 fold
- Fold improvement 82 vs. E19: t½ ([2]; mouse, in vivo, po): 0.4 fold
- fold improved plasma exposure (based on AUC) over E19 ([2]; mouse, in vivo, po): 2-4 fold
- Fold improvement 82 vs. E19: Cmax ([2]; mouse, in vivo, po, brain): 1.6 fold
- Fold improvement 82 vs. E19: Cmax ([2]; mouse, in vivo, po, plasma): 1.2 fold
- dose proportionality of brain exposure ([2]; oral delivery to mice): generally dose-proportional increases
- dose proportionality of plasma exposure ([2]; oral delivery to mice): greater than proportional at doses above 20 mg/kg
- F (% of IV) ([2]; plasma, oral, mice): 45%
- plasma PK when administered to rodents ([2]; rodents, plasma): good exposure (AUC and Cmax), promising bioavailability, prolonged half-life, and low clearance
- IC50 ([3]; read-out: T. b. brucei IC50 (nM)): 556 nM
- IC50 ([3]; read-out: T.b. brucei IC50 (ug/mL)): 0.204 µg/mL
- IC50 at 72 h [4]: > 10 µg/mL
